CN(C)/C=C/C(=O)c1cccnc1
solubility (mole fraction)
Conditions	in 1,4-dioxane	in DMF	in THF	in acetone	in cyclohexane	in ethyl acetate	in methanol	in n-propanol
278.15 K	–	0.0897	0.021	0.00872	–	0.0131	0.0255	0.0185
283.15 K	–	0.112	0.0216	0.00917	0.00098	0.014	0.0278	0.0207
288.15 K	0.0331	0.142	0.0225	0.00987	0.00114	0.0152	0.0304	0.0233
293.15 K	0.0357	0.175	0.0239	0.0108	0.00147	0.0163	0.034	0.0261
298.15 K	0.0388	0.209	0.0257	0.0117	0.00183	0.018	0.0379	0.0298
303.15 K	0.0427	0.249	0.0279	0.0127	0.00228	0.02	0.0427	0.0331
308.15 K	0.048	0.293	0.0304	0.0138	0.00284	0.0228	0.0476	0.0371
313.15 K	0.054	0.348	0.033	0.0149	0.0034	0.0259	0.0533	0.0408
318.15 K	0.061	0.408	0.0358	0.0164	0.00408	0.0295	0.0588	0.0465
323.15 K	0.0692	0.482	0.0391	0.0178	0.00493	0.0338	0.0648	0.0529
328.15 K	0.0779	0.588	0.0428	0.0197	0.0061	0.0382	0.0715	0.0604
